Experimental findings from patent publication US20220170911A1, “CELL CONSTRUCT AND CELL CONSTRUCT PRODUCTION METHOD” (priority 2019, published 2022) are described below.

Holding throughout (assay type): cell-based, human
The subject of test [1] is tissue product including no vascular endothelial cell. Kind of test: Evaluation of glucose uptake (NBD-modified glucose fluorescence) with uptake inhibitor and promoter. To be noted: 125 μM apigenin and/or 10 μg/mL insulin in DMEM with 0.1 mg/mL NBD-modified glucose; day 7 tissue product; 20-135 minutes; control medium defined as 100%; FIG. 16/17(a). As to the method: A cell structure provided with a vascular network was produced with the same procedure as in Test Example 2, except that 6500 cells of mature adipocytes, 5500 cells of adipose stem cells, 2750 cells of vascular endothelial cells, 0.025 mg of the defibered collagen component (sCMF), 0.015 mg of fibrinogen, and 0.007 U of thrombin were used per tissue. The materials were prepared for 96 wells all at once to afford a gel, which was seeded on each well of a 96-well plate. […] The cell structures were incubated, and fluorescence measurement was carried out after 10 minutes, 30 minutes, 60 minutes, 120 minutes, and 150 minutes. Before the measurement at each timing, the culture medium for a cell structure to be subjected to measurement was substituted with 300 μL of PBS buffer, and the fluorescence was measured with a plate reader (Synergy HTX, manufactured by BioTek Instruments, Inc.) to determine the cumulative value of fluorescence intensity in the image. […] The tissue product was incubated, and fluorescence measurement was carried out after 20 minutes, 45 minutes, 70 minutes, 90 minutes, and 135 minutes in the same manner as in Test Example 10. […]

Test [2] shares this test system. The test is described as follows: Evaluation of fatty acid uptake (BODIPY-modified fatty acid fluorescence) with uptake promoter. To be noted: 10 μg/mL insulin in DMEM with 4 μM BODIPY-modified fatty acid; day 7 tissue product; 5, 30, 60 minutes; control without insulin defined as 100%; FIG. 17(b). As to the method: A tissue product including no vascular endothelial cell was produced in the same manner as in Test Example 10, and evaluation was carried out with the tissue product on day 7 after the beginning of formation thereof sCMF produced by using a mixture of a sponge fragment of porcine skin-derived collagen I and a sponge fragment of porcine skin-derived collagen III was used.
A tissue product was incubated in the same manner as in Test Example 10, except that, in place of NBD-modified glucose in Test Example 10, 4 μM BODIPY-modified fatty acid (Invitrogen (R) BODIPY (R) 500/510 Cl, C12 (4,4-Difluoro-5-Methyl-4-Bora-3a,4a-Diaza-s-Indacene-3-Dodecanoi c Acid), Thermo Fisher Scientific) was added to DMEM culture medium, and fluorescence measurement was carried out after 5 minute, 30 minutes, and 60 minutes. Further, 10 μg/mL insulin was added to the DMEM culture medium containing 4 μM BODIPY-modified fatty acid, and fluorescence measurement was carried out in the same manner.
The number of samples for each treatment was 5 (n=5), and fatty acid uptake in the same control culture medium as in Test Example 10, which contained no insulin, was defined as 100%.

The subject of test [3] is cell structure including vascular endothelial cells and tissue product including no vascular endothelial cell. The test is described as follows: Evaluation of effect of uptake inhibitor for fatty acid (BODIPY-modified fatty acid fluorescence). The conditions noted are these: 100 ng/mL TNFα in DMEM with 4 μM BODIPY-modified fatty acid; day 14; 0, 5, 30, 60 minutes; with and without vascular endothelial cells; control without TNFα defined as 100%; FIG. 18. The method, then:
A cell structure including vascular endothelial cells and a tissue product including no vascular endothelial cell were produced in the same manner as in Test Example 10, and evaluation was carried out with the cell structure and tissue product on day 14 after the beginning of formation thereof sCMF produced by using a sponge fragment of porcine skin-derived collagen I was used.
Into DMEM culture medium containing 4 μM BODIPY-modified fatty acid in place of NBD-modified glucose in (Evaluation of Glucose Uptake) of Test Example 10, 100 ng/mL TNFα as an uptake inhibitor for fatty acid was introduced. The cell structure including vascular endothelial cells and the tissue product including no vascular endothelial cell were each incubated, and fluorescence measurement was carried out after 0 minutes, 5 minutes, 30 minutes, and 60 minutes in the same manner as in Test Example 10. The number of samples for each treatment was 5 (n=5), and fatty acid uptake in the same control culture medium as in Test Example 10, which contained no TNFα, was defined as 100%.

In test [4] the test system is tissue product including no vascular endothelial cell. The test is described as follows: Evaluation of release of glucose and fatty acid taken up, with release promoter. The conditions noted are these: 2 mM isoproterenol, then 30 minutes incubation, day 14 tissue product. As to the method: A tissue product was produced in the same manner as for the cell structure in Test Example 10, except that no vascular endothelial cell was included, and evaluation was carried out with the tissue product on day 14 after the beginning of formation thereof.
In order to measure the amount of release of glucose once taken up, incubation was performed on DMEM culture medium supplemented with 0.1 mg/mL NBD-modified glucose as in Test Example 10 for 60 minutes, and then the culture medium was substituted again with 300 μL of DMEM culture medium supplemented with NBD-modified glucose, or with 300 μL of DMEM culture medium supplemented with 2 mM isoproterenol and NBD-modified glucose. Thereafter, incubation was performed for 30 minutes to allow glucose to be released from the cellular tissue, and fluorescence measurement was carried out. […]
The number of samples for each treatment was 5 […], fluorescence intensity for the tissue product with the culture medium containing no isoproterenol was defined as 100%, and what % of the amount of uptake was released was determined by comparing with fluorescence intensity for the tissue product with the culture medium containing isoproterenol. […]

On to `O=c1cc(-c2ccc(O)cc2)oc2cc(O)cc(O)c12` [apigenin], for which the “amount of uptake of glucose” value in test [1] was “reduced”. On to Insulin from bovine pancreas, for which the “amount of fatty acid uptake” value in test [2] is “promoted”. Moreover, the “amount of uptake of glucose” value in test [1] is “increased”. On to TNFα, for which the “amount of uptake of fatty acid” value in test [3] is on record as “reduced”. `CC(C)NCC(O)c1ccc(O)c(O)c1` (stereo not drawn) [isoproterenol]: the “release of fatty acid taken up” value in test [4] (60 minutes uptake of BODIPY-modified fatty acid, FIG. 19(b)) was “promoted”. Besides, the “release of glucose taken up” value in test [4] (60 minutes uptake of NBD-modified glucose, FIG. 19(a)) was “promoted”.
